The target of the experiment is T1, 17-beta-hydroxysteroid dehydrogenase 13 (Homo sapiens, UniProt Q7Z5P4).
T1 sequence (Q7Z5P4 whole entry): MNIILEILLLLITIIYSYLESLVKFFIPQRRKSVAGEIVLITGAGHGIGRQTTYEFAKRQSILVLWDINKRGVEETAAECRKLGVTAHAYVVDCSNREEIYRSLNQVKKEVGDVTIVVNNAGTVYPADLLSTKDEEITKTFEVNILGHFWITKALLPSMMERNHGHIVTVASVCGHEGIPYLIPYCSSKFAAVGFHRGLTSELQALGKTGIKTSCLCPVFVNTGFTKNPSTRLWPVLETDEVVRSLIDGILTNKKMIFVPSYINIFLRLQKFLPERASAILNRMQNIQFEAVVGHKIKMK
Put plainly: Inhibition of His-tagged HSD17B13 (unknown origin) expressed in Escherichia coli using estradiol as substrate incubated for 2 hrs and measured by LC/MS estrone detection assay.
In the case of `Cc1ccc(NC(=O)c2cc(Cl)c(O)c(Cl)c2)c2c(=O)n(Cc3ccccc3OC(F)(F)F)c(C(F)F)nc12`, the half-inhibitory concentration (IC50) (commonly the concentration needed to halve the response being measured) is not above 100 nM.

`O=C(Nc1scnc1C(=O)NCc1ccccc1OC(F)(F)F)c1cc(Cl)c(O)c(Cl)c1` yielded an IC50 not above 100 nM.

`Cc1nc2c(Cl)ccc(NC(=O)c3cc(Cl)c(O)c(Cl)c3)c2c(=O)n1Cc1ccccc1C(F)(F)F`: the IC50 is not above 100 nM.

As for `O=C(Nc1ccc(F)c2ncn(Cc3ccccc3C(F)(F)F)c(=O)c12)c1cc(Cl)c(O)c(Cl)n1`, the 50% inhibitory concentration (IC50) is not above 100 nM.

For `COc1ccccc1CCNC(=O)c1sccc1NC(=O)c1cc(Cl)c(O)c(Cl)c1`, the concentration for half-maximal inhibition (IC50) is not above 100 nM.

In the case of `O=C(Nc1cccc2ncn(Cc3ccccc3-c3ccccn3)c(=O)c12)c1cc(Cl)c(O)c(Cl)c1`, the IC50 was not above 500 nM.

In the case of `Cc1ccc(NC(=O)c2cc(Cl)c(O)c(Cl)c2)c2c(=O)n(Cc3ccccc3C(F)(F)F)c(C(F)F)nc12`, the IC50 was not above 100 nM.

`O=C(Nc1cccc2ncn(Cc3ncccc3Cl)c(=O)c12)c1cc(Cl)c(O)c(Cl)c1` gave an IC50 not above 100 nM.

`O=C(Nc1ccc(Cl)c2ncn(Cc3ccccc3OC(F)(F)F)c(=O)c12)c1cc(Cl)c(O)c(Cl)c1` yielded a half-inhibitory concentration (IC50) not above 100 nM.

`Cc1ccc(NC(=O)c2cc(Cl)c(O)c(Cl)c2)c2c(=O)n(Cc3ncccc3C(F)(F)F)c(C)nc12` displayed an IC50 not above 100 nM.

`Cc1ccc(NC(=O)c2cc(Cl)c(O)c(Cl)n2)c2c(=O)n(Cc3ccccc3OC(F)(F)F)c(C)nc12` registered a concentration for half-maximal inhibition (IC50) not above 100 nM.

`CN(C)CCOc1ccc(NC(=O)c2cc(Cl)c(O)c(Cl)c2)c(C(=O)NCc2ccccc2OC(F)(F)F)c1` yielded a half-maximal inhibitory concentration (IC50) of more than 10000 nM.

In the case of `Cc1ccc(NC(=O)c2cc(Cl)c(O)c(Cl)c2)c2c(=O)n([C@@H]3CC[C@H]3c3ccccc3)c(C)nc12`, the half-maximal inhibitory concentration (IC50) is not above 100 nM.

The molecule `O=C(Nc1cccc2ncn(Cc3cccc(F)c3)c(=O)c12)c1cc(Cl)c(O)c(Cl)n1` came in with a half-inhibitory concentration (IC50) not above 100 nM.

`O=C(Nc1cccc2ncn(Cc3ccccc3F)c(=O)c12)c1cc(Cl)c(O)c(Cl)n1` showed a half-inhibitory concentration (IC50) not above 100 nM.

Take `O=C(NCc1ccccc1OC(F)(F)F)C1CCCN1C(=O)c1cc(Cl)c(O)c(Cl)n1` (stereo not drawn): the IC50 was more than 10000 nM.

On to `[2H]C([2H])(c1ccccc1C(F)(F)F)n1c(C)nc2c(C)ccc(NC(=O)c3cc(Cl)c(O)c(Cl)c3)c2c1=O`, for which the IC50 is not above 100 nM.

In the case of `O=C(Nc1cccc2ncn(Cc3cccc(C(F)(F)F)c3)c(=O)c12)c1cc(Cl)c(O)c(Cl)c1`, the 50% inhibitory concentration (IC50) is not above 100 nM.

The molecule `O=C(Nc1cccc2ncn(Cc3ccccc3C(F)(F)F)c(=O)c12)c1cc(Cl)c(O)c(Cl)n1` displayed an IC50 not above 100 nM.

`Cc1ccc(NC(=O)c2cc(Cl)c(O)c(Cl)c2)c2c(=O)n(Cc3ccccc3OC(F)(F)F)c(C)nc12` displayed an IC50 not above 100 nM.

For `O=C(Nc1scnc1C(=O)NCc1cccc(F)c1)c1cc(Cl)c(O)c(Cl)c1`, the concentration for half-maximal inhibition (IC50) is not above 100 nM.

As to `Cc1ccc(NC(=O)c2cc(Cl)c(O)c(Cl)c2)c2c(=O)n(Cc3ccccc3OC(F)(F)F)cnc12`, the IC50 is not above 100 nM.

The molecule `Cn1nc(CNC(=O)c2ncsc2NC(=O)c2cc(Cl)c(O)c(Cl)c2)c2ccccc21` gave an IC50 not above 100 nM.

`O=C(Nc1cccc2ncn(Cc3ccccc3N3CCOCC3)c(=O)c12)c1cc(Cl)c(O)c(Cl)c1`: the IC50 was not above 100 nM.

With `O=C(Nc1cc(Cl)sc1C(=O)NCCc1ccccc1OC(F)(F)F)c1cc(Cl)c(O)c(Cl)c1`, the half-inhibitory concentration (IC50) is not above 500 nM.

Consider `O=C(Nc1ccc(F)c2ncn(Cc3ccccc3OC(F)(F)F)c(=O)c12)c1cc(Cl)c(O)c(Cl)c1`, for which the 50% inhibitory concentration (IC50) is not above 100 nM.

Consider `O=C(Nc1cccc2ncn(C(c3ccccc3)c3ccccc3)c(=O)c12)c1cc(Cl)c(O)c(Cl)c1`, for which the IC50 is not above 100 nM.

In turn, `O=C(Nc1cccc2ncn(Cc3ccn(-c4ccccc4F)n3)c(=O)c12)c1cc(Cl)c(O)c(Cl)c1` showed a half-maximal inhibitory concentration (IC50) not above 100 nM.

Molecule `Cn1nc(Cn2cnc3cccc(NC(=O)c4cc(Cl)c(O)c(Cl)c4)c3c2=O)c2ccccc21` had an IC50 not above 100 nM.

Take `Cc1nc2c(F)ccc(NC(=O)c3cc(Cl)c(O)c(Cl)c3)c2c(=O)n1Cc1nn(C)c2ccccc12`: the IC50 is not above 100 nM.

As for `[2H]C([2H])([2H])c1nc2c(C)ccc(NC(=O)c3cc(Cl)c(O)c(Cl)n3)c2c(=O)n1Cc1ccccc1OC(F)(F)F`, the half-maximal inhibitory concentration (IC50) was not above 100 nM.

Consider `O=C(Nc1cccc2ncn(Cc3cccnc3C(F)(F)F)c(=O)c12)c1cc(Cl)c(O)c(Cl)c1`, for which the concentration for half-maximal inhibition (IC50) is not above 100 nM.

With `N#Cc1ccccc1Cn1cnc2cccc(NC(=O)c3cc(Cl)c(O)c(Cl)c3)c2c1=O`, the concentration for half-maximal inhibition (IC50) was not above 100 nM.

Consider `O=C(Nc1ccc(F)c2ncn(Cc3ccccc3C(F)(F)F)c(=O)c12)c1cc(Cl)c(O)c(Cl)c1`, for which the half-inhibitory concentration (IC50) was not above 100 nM.

Turning to `O=C(Nc1cc(Cl)sc1C(=O)NCc1ccccc1OC(F)(F)F)c1cc(Cl)c(O)c(Cl)c1`, the IC50 is not above 100 nM.

`O=C(Nc1scnc1C(=O)NCc1ccccc1OC(F)(F)F)c1cc(Cl)c(O)c(Cl)n1` gave an IC50 not above 100 nM.

In turn, `Cc1nc2c(F)ccc(NC(=O)c3cc(Cl)c(O)c(Cl)c3)c2c(=O)n1Cc1ncccc1C(F)(F)F` yielded an IC50 not above 100 nM.

Turning to `Cc1ccc(NC(=O)c2cc(Cl)c(O)c(Cl)n2)c2c(=O)n(Cc3ccccc3OC(F)(F)F)c(C(F)F)nc12`, the IC50 was not above 100 nM.

`O=C(NCc1ccccc1OC(F)(F)F)C1CCCN1C(=O)c1cc(Cl)c(O)c(Cl)c1` (stereo not drawn) showed an IC50 of more than 10000 nM.

`Cc1ccc(NC(=O)c2cc(Cl)c(O)c(Cl)c2)c2c(=O)n(Cc3ccccc3C(F)(F)F)c(C)nc12`: the IC50 is not above 100 nM.

In turn, `NS(=O)(=O)c1ccccc1Cn1cnc2cccc(NC(=O)c3cc(Cl)c(O)c(Cl)c3)c2c1=O` came in with an IC50 of more than 10000 nM.

Molecule `C[C@@H](c1cccc(F)c1)n1cnc2cccc(NC(=O)c3cc(Cl)c(O)c(Cl)c3)c2c1=O` displayed an IC50 not above 100 nM.

Consider `O=C(Nc1cccc2ncn(Cc3n[nH]c4ccccc34)c(=O)c12)c1cc(Cl)c(O)c(Cl)c1`, for which the IC50 is not above 100 nM.

Molecule `O=C(N[C@H]1CCCC[C@@H]1C(=O)NCc1ccccc1OC(F)(F)F)c1cc(Cl)c(O)c(Cl)n1` came in with a concentration for half-maximal inhibition (IC50) of more than 10000 nM.

Take `O=C(Nc1cccc2ncn(Cc3ccc(C(F)(F)F)cc3)c(=O)c12)c1cc(Cl)c(O)c(Cl)c1`: the IC50 was not above 100 nM.

Turning to `Cc1nc2cccc(NC(=O)c3cc(Cl)c(O)c(Cl)c3)c2c(=O)n1Cc1ccccc1OC(F)(F)F`, the IC50 was not above 100 nM.

On to `Cn1c(=O)n(Cc2ccccc2OC(F)(F)F)c(=O)c2c(NC(=O)c3cc(Cl)c(O)c(Cl)c3)cccc21`, for which the IC50 was not above 100 nM.

On to `O=C(Nc1cccc2ncn(Cc3cccc(OC(F)(F)F)c3)c(=O)c12)c1cc(Cl)c(O)c(Cl)c1`, for which the concentration for half-maximal inhibition (IC50) was not above 100 nM.

`Cc1nc2c(F)ccc(NC(=O)c3cc(Cl)c(O)c(Cl)n3)c2c(=O)n1Cc1ccccc1OC(F)(F)F` gave a 50% inhibitory concentration (IC50) not above 100 nM.

`O=C(Nc1cccc2ncn(Cc3ncccc3C(F)(F)F)c(=O)c12)c1cc(Cl)c(O)c(Cl)c1`: the IC50 was not above 100 nM.

Molecule `O=C(Nc1cccc2ncn(Cc3ccccc3OC(F)(F)F)c(=O)c12)c1cc(Cl)c(O)c(Cl)c1` registered a 50% inhibitory concentration (IC50) not above 100 nM.

The molecule `O=C(Nc1cccc2ncn(Cc3ccccc3C(F)(F)F)c(=O)c12)c1cc(Cl)c(O)c(Cl)c1` gave an IC50 not above 100 nM.

For the molecule `[2H]C([2H])([2H])c1nc2c(C)ccc(NC(=O)c3cc(Cl)c(O)c(Cl)c3)c2c(=O)n1Cc1ccccc1C(F)(F)F`, the IC50 was not above 100 nM.

In turn, `O=C(Nc1scnc1C(=O)NCc1ccccc1C(F)(F)F)c1cc(Cl)c(O)c(Cl)c1` gave a half-inhibitory concentration (IC50) not above 100 nM.

The molecule `Cc1nsc(NC(=O)c2cc(Cl)c(O)c(Cl)c2)c1C(=O)N[C@@H](C)c1ccccc1F` yielded a half-maximal inhibitory concentration (IC50) not above 100 nM.

For the molecule `Cc1nc2c(F)ccc(NC(=O)c3cc(Cl)c(O)c(Cl)c3)c2c(=O)n1Cc1ccccc1OC(F)(F)F`, the IC50 was not above 100 nM.

Consider `Cc1nc2c(F)ccc(NC(=O)c3cc(Cl)c(O)c(Cl)c3)c2c(=O)n1Cc1ccccc1C(F)(F)F`, for which the IC50 was not above 100 nM.

For the molecule `Cc1nc2nccc(NC(=O)c3cc(Cl)c(O)c(Cl)c3)c2c(=O)n1Cc1ccccc1OC(F)(F)F`, the IC50 is not above 100 nM.

As to `O=C(Nc1cccc2ncn(C3(c4ccccc4F)CC3)c(=O)c12)c1cc(Cl)c(O)c(Cl)c1`, the IC50 was not above 100 nM.

`[2H]C([2H])([2H])c1nc2c(C)ccc(NC(=O)c3cc(Cl)c(O)c(Cl)c3)c2c(=O)n1Cc1ccccc1OC(F)(F)F` came in with an IC50 not above 100 nM.

`C[C@@H](c1cccc(F)c1)n1cnc2cccc(NC(=O)c3cc(Cl)c(O)c(Cl)n3)c2c1=O` displayed an IC50 not above 100 nM.

Consider `Cc1ccc(NC(=O)c2cc(Cl)c(O)c(Cl)c2)c2c(=O)n(Cc3ccccc3C(F)(F)F)c(CF)nc12`, for which the 50% inhibitory concentration (IC50) is not above 100 nM.

As for `C[C@H](c1cccc(F)c1)n1cnc2cccc(NC(=O)c3cc(Cl)c(O)c(Cl)c3)c2c1=O`, the IC50 was not above 100 nM.
